Source: patent publication US4292317A, “1,4-Dihydro-quinoline-3-carboxylic acid derivatives, process for their preparation and compositions containing them” (Laboratorie Roger Bellon, priority 1977, dated 1981)
≈ marks a conversion by molar mass, not a printed value. Read-outs that look alike come from different tables or passages of the source.

How the values were obtained:
Type in all cases: cell-based
Ps. aeruginosa 72.345 = assay: M.I.C. in vitro, nutrient agar dilution; settings: Pseudomonas aeruginosa, 18 h, read-out: M.I.C.
Protocol: (§1) After sterilisation at 120° C., the pH was 6.8.
(§2) The minimum inhibitory concentrations (M.I.C.) were determined by dilution of the test compounds in this mixture, the concentration ranging from 0.05 to 100 μg/cm^3 in a geometric progression with a factor of 2.
(§3) The inoculation of the dishes was carried out by means of a multiple inoculator with 10^-3 dilutions of 18 hour old broth cultures.
(§4) The dishes were placed in an oven at 37° C. and the readings were taken afer an incubation time of 18 hours. The M.I.C. was taken as the lowest concentration which inhibited a culture.

Staph. 209 P = assay: M.I.C. in vitro, nutrient agar dilution; settings: 18 h, read-out: M.I.C.
Protocol: as §1, §2, §3, §4

Pr. mirabilis Nig = assay: M.I.C. in vitro, nutrient agar dilution; settings: Proteus mirabilis, 18 h, read-out: M.I.C.
Protocol: as §1, §2, §3, §4

Staph. 9.144 = assay: M.I.C. in vitro, nutrient agar dilution; settings: 18 h, read-out: M.I.C.
Protocol: as §1, §2, §3, §4

Pr. vulgaris 12-53 = assay: M.I.C. in vitro, nutrient agar dilution; settings: Proteus vulgaris, 1253, 18 h, read-out: M.I.C.
Protocol: as §1, §2, §3, §4

B. subtilis = assay: M.I.C. in vitro, nutrient agar dilution; settings: Bacillus subtilis, 18 h, read-out: M.I.C.
Protocol: as §1, §2, §3, §4

Arizona 6.211 = assay: M.I.C. in vitro, nutrient agar dilution; settings: 18 h, read-out: M.I.C.
Protocol: as §1, §2, §3, §4

Ps. aeruginosa A.22 = assay: M.I.C. in vitro, nutrient agar dilution; settings: Pseudomonas aeruginosa, 18 h, read-out: M.I.C.
Protocol: as §1, §2, §3, §4

Esch. coli 54.127 O.M.S. = assay: M.I.C. in vitro, nutrient agar dilution; settings: Escherichia coli, 18 h, read-out: M.I.C.
Protocol: as §1, §2, §3, §4

Strepto A 561 = assay: M.I.C. in vitro, nutrient agar dilution; settings: 18 h
Protocol: as §1, §2, §3, §4

Esch. coli 111 B4 = assay: M.I.C. in vitro, nutrient agar dilution; settings: Escherichia coli, 18 h
Protocol: as §1, §2, §3, §4

S. oranienburg 1066 = assay: M.I.C. in vitro, nutrient agar dilution; settings: Salmonella enterica, 18 h, read-out: M.I.C.
Protocol: as §1, §2, §3, §4

Bord. bronchis. 4.617 = assay: M.I.C. in vitro, nutrient agar dilution; settings: 18 h, read-out: M.I.C.
Protocol: as §1, §2, §3, §4

Strepto D.M. 19 = assay: M.I.C. in vitro, nutrient agar dilution; settings: 18 h, read-out: M.I.C.
Protocol: as §1, §2, §3, §4

S. enteritidis Danysz = assay: M.I.C. in vitro, nutrient agar dilution; settings: Salmonella enterica, 18 h, read-out: M.I.C.
Protocol: as §1, §2, §3, §4

Pr. morganii A.236 = assay: M.I.C. in vitro, nutrient agar dilution; settings: Morganella morganii, 18 h, read-out: M.I.C.
Protocol: as §1, §2, §3, §4

Esch. coli 95 I.S.M. = assay: M.I.C. in vitro, nutrient agar dilution; settings: Escherichia coli, 18 h, read-out: M.I.C.
Protocol: as §1, §2, §3, §4

Sh. sonnei I.P.S. = assay: M.I.C. in vitro, nutrient agar dilution; settings: Shigella sonnei, 18 h, read-out: M.I.C.
Protocol: as §1, §2, §3, §4

Providentia 0223 = assay: M.I.C. in vitro, nutrient agar dilution; settings: 18 h, read-out: M.I.C.
Protocol: as §1, §2, §3, §4

Serratia = assay: M.I.C. in vitro, nutrient agar dilution; settings: 18 h, read-out: M.I.C.
Protocol: as §1, §2, §3, §4

Klebs. pneum. 10.031 = assay: M.I.C. in vitro, nutrient agar dilution; settings: 18 h, read-out: M.I.C.
Protocol: as §1, §2, §3, §4

Salm. typhi 0901 = assay: microbe, parasite or virus in culture; settings: Salmonella enterica, 18 h
Protocol: as §1, §2, §3, §4

[1] = Table 2, Ps. aeruginosa 72.345 (Gram negative)
[2] = Table 2, Staph. 209 P (Gram positive)
[3] = Table 2, Pr. mirabilis Nig (Gram negative)
[4] = Table 2, Staph. 9.144 (Gram positive)
[5] = Table 2, Pr. vulgaris 12-53 (Gram negative)
[6] = Table 2, B. subtilis (Gram positive)
[7] = Table 2, Arizona 6.211 (Gram negative)
[8] = Table 2, Ps. aeruginosa A.22 (Gram negative)
[9] = Table 2, Esch. coli 54.127 O.M.S. (Gram negative)
[10] = Table 2, Strepto A 561 (Gram positive)
[11] = Table 2, Esch. coli 111 B4 (Gram negative)
[12] = Table 2, S. oranienburg 1066 (Gram negative)
[13] = Table 2, Bord. bronchis. 4.617 (Gram negative)
[14] = Table 2, Strepto D.M. 19 (Gram positive)
[15] = Table 2, S. enteritidis Danysz (Gram negative)
[16] = Table 2, Pr. morganii A.236 (Gram negative)
[17] = Table 2, Esch. coli 95 I.S.M. (Gram negative)
[18] = Table 2, Sh. sonnei I.P.S. (Gram negative)
[19] = Table 2, Providentia 0223 (Gram negative)
[20] = Table 2, Berratia (Gram negative)
[21] = Table 2, Klebs. pneum. 10.031 (Gram negative)
[22] = Table 2, Salm. typhi 0901 (Gram negative)

Question: Which results are given for C=Cn1cc(C(=O)O)c(=O)c2cc(F)c(N3CCOCC3)cc21 [Example 42, 6-Fluoro-7-morpholino-4-oxo-1-vinyl-1,4-dihydro-quinoline-3-carboxylic acid]?
Answer: MIC (Ps. aeruginosa 72.345; Table III, Pd. aeruginosa 72.345): 6.2 µg/mL (≈ 19.5 µM); MIC (Staph. 209 P; Table III, Staph. 209 P): 0.8 µg/mL (≈ 2.51 µM); MIC (Pr. mirabilis Nig; Table III, Pr. mirabilis Nig): 1.6 µg/mL (≈ 5.03 µM); MIC (Staph. 9.144; Table III, Staph. 9.144): 1.6 µg/mL (≈ 5.03 µM); MIC (Pr. vulgaris 12-53; Table III, Pr. vulgaris 12-53): 0.8 µg/mL (≈ 2.51 µM); MIC (B. subtilis; Table III, B. Subtilis): 0.2 µg/mL (≈ 0.628 µM); MIC (Arizona 6.211; Table III, Arizona 6.211): 0.8 µg/mL (≈ 2.51 µM); MIC (Ps. aeruginosa A.22; Table III, Ps. aeruginosa A.22): 3.1 µg/mL (≈ 9.74 µM); MIC (Esch. coli 54.127 O.M.S.; Table III, Esch. coli 54.127 O.M.S.): 0.8 µg/mL (≈ 2.51 µM); MIC (Strepto A 561; Table III, Strepto A 561): 25 µg/mL (≈ 78.5 µM); MIC (Esch. coli 111 B4; Table III, Esch. coli 111 B4): 0.8 µg/mL (≈ 2.51 µM); MIC (S. oranienburg 1066; Table III, S. oranienburg 1066): 100 µg/mL (≈ 314 µM); MIC (Bord. bronchis. 4.617; Table III, Bord. bronchis. 4.617): 12.5 µg/mL (≈ 39.3 µM); MIC (Strepto D.M. 19; Table III, Strepto D.M. 19): 12.5 µg/mL (≈ 39.3 µM); MIC (S. enteritidis Danysz; Table III, S. enteritidis Danysz): 1.6 µg/mL (≈ 5.03 µM); MIC (Pr. morganii A.236; Table III, Pr. morganii A. 236): 0.2 µg/mL (≈ 0.628 µM); MIC (Esch. coli 95 I.S.M.; Table III, Esch. coli 95 I.S.M.): 0.8 µg/mL (≈ 2.51 µM); MIC (Sh. sonnei I.P.S.; Table III, Sh. sonnei I.P.S.): 0.8 µg/mL (≈ 2.51 µM); MIC (Providentia 0223; Table III, Providentia 0223): 25 µg/mL (≈ 78.5 µM); MIC (Serratia; Table III): 3.1 µg/mL (≈ 9.74 µM); MIC (Klebs. pneum. 10.031; Table III, Klebs. pneum. 10.031): 0.8 µg/mL (≈ 2.51 µM); MIC (Salm. typhi 0901; Table III, Salm. typhi 0901): 0.8 µg/mL (≈ 2.51 µM)

Question: Which results are given for CCn1cc(C(=O)O)c(=O)c2ccc(N3CCN(C)CC3)cc21 [Example T1, 1-ethyl-7-(4-methylpiperazinyl)-4-oxo-1,4-dihydro-quinoline-3-carboxylic acid, reference compound]?
Answer: MIC (Ps. aeruginosa 72.345; [1]): 12.5 µg/mL (≈ 39.6 µM); MIC (Staph. 209 P; [2]): 3.1 µg/mL (≈ 9.83 µM); MIC (Pr. mirabilis Nig; [3]): 3.1 µg/mL (≈ 9.83 µM); MIC (Staph. 9.144; [4]): 6.2 µg/mL (≈ 19.7 µM); MIC (Pr. vulgaris 12-53; [5]): 3.1 µg/mL (≈ 9.83 µM); MIC (B. subtilis; [6]): 1.6 µg/mL (≈ 5.07 µM); MIC (Arizona 6.211; [7]): 1.6 µg/mL (≈ 5.07 µM); MIC (Ps. aeruginosa A.22; [8]): 12.5 µg/mL (≈ 39.6 µM); MIC (Esch. coli 54.127 O.M.S.; [9]): 1.6 µg/mL (≈ 5.07 µM); MIC (Strepto A 561; [10]): 50 µg/mL (≈ 159 µM); MIC (Esch. coli 111 B4; [11]): 1.6 µg/mL (≈ 5.07 µM); MIC (S. oranienburg 1066; [12]): > 100 µg/mL; MIC (Bord. bronchis. 4.617; [13]): 25 µg/mL (≈ 79.3 µM); MIC (Strepto D.M. 19; [14]): 50 µg/mL (≈ 159 µM); MIC (S. enteritidis Danysz; [15]): 3.1 µg/mL (≈ 9.83 µM); MIC (Pr. morganii A.236; [16]): 0.8 µg/mL (≈ 2.54 µM); MIC (Esch. coli 95 I.S.M.; [17]): 0.8 µg/mL (≈ 2.54 µM); MIC (Sh. sonnei I.P.S.; [18]): 1.6 µg/mL (≈ 5.07 µM); MIC (Providentia 0223; [19]): 100 µg/mL (≈ 317 µM); MIC (Serratia; [20]): 12.5 µg/mL (≈ 39.6 µM); MIC (Klebs. pneum. 10.031; [21]): 0.8 µg/mL (≈ 2.54 µM); MIC (Salm. typhi 0901; [22]): 3.1 µg/mL (≈ 9.83 µM)

Question: How did the MIC (Ps. aeruginosa 72.345; [1]) turn out when CCn1cc(C(=O)O)c(=O)c2ccc(N3CCN(CCO)CC3)cc21 [Example T4, reference compound] was run?
Answer: 100 µg/mL (≈ 290 µM)

Question: What about the MIC (Staph. 209 P; [2]) of the same compound?
Answer: 6.2 µg/mL (≈ 18 µM)

Question: What about the MIC (Pr. mirabilis Nig; [3]) of the same compound?
Answer: 50 µg/mL (≈ 145 µM)

Question: What about the MIC (Staph. 9.144; [4]) of the same compound?
Answer: 3.1 µg/mL (≈ 8.98 µM)

Question: What about the MIC (Pr. vulgaris 12-53; [5]) of the same compound?
Answer: 25 µg/mL (≈ 72.4 µM)

Question: And the MIC (B. subtilis; [6])?
Answer: 3.1 µg/mL (≈ 8.98 µM)

Question: And the MIC (Arizona 6.211; [7])?
Answer: 12.5 µg/mL (≈ 36.2 µM)

Question: And the MIC (Ps. aeruginosa A.22; [8])?
Answer: 100 µg/mL (≈ 290 µM)

Question: And the MIC (Esch. coli 54.127 O.M.S.; [9])?
Answer: 6.2 µg/mL (≈ 18 µM)

Question: And the MIC (Strepto A 561; [10])?
Answer: > 100 µg/mL

Question: What about the MIC (Esch. coli 111 B4; [11]) of the same compound?
Answer: 6.2 µg/mL (≈ 18 µM)

Question: And the MIC (S. oranienburg 1066; [12])?
Answer: > 100 µg/mL

Question: And the MIC (Bord. bronchis. 4.617; [13])?
Answer: 100 µg/mL (≈ 290 µM)

Question: What about the MIC (Strepto D.M. 19; [14]) of the same compound?
Answer: 100 µg/mL (≈ 290 µM)

Question: What about the MIC (S. enteritidis Danysz; [15]) of the same compound?
Answer: 12.5 µg/mL (≈ 36.2 µM)

Question: And the MIC (Pr. morganii A.236; [16])?
Answer: 3.1 µg/mL (≈ 8.98 µM)

Question: What about the MIC (Esch. coli 95 I.S.M.; [17]) of the same compound?
Answer: 6.2 µg/mL (≈ 18 µM)

Question: What about the MIC (Sh. sonnei I.P.S.; [18]) of the same compound?
Answer: 6.2 µg/mL (≈ 18 µM)

Question: And the MIC (Providentia 0223; [19])?
Answer: > 100 µg/mL

Question: What about the MIC (Serratia; [20]) of the same compound?
Answer: > 100 µg/mL

Question: And the MIC (Klebs. pneum. 10.031; [21])?
Answer: 3.1 µg/mL (≈ 8.98 µM)

Question: What about the MIC (Salm. typhi 0901; [22]) of the same compound?
Answer: 25 µg/mL (≈ 72.4 µM)
